Experiments:
[1] = tested on: Molt4 (human T cell leukemia cell line); assay: Suppression of incorporation of 3H-thymidine into / proliferation of the Molt4 cell; format: cell-based; conditions: samples from single HPLC peaks, 7 μg/ml
Procedure: The apoptosis inducing factor (AIF) is produced and released in the supernatant of the NS cell line culture. Thus, the AIF produced by the NS cell was separated and purified by the physico-chemical methods. The activity of AIF was measured by the ability of […] and the DNA fragmentation method. First, the supernatant of the culture of the NS cell line was adsorbed on a C18 column and eluted to separate the AIF. The crude extract was developed on a thin layer chromatography (TLC) plate, and the active fractions were isolated and purified by reverse phase high performance liquid chromatography (HPLC).
The sample lyophilized from 50 ml of the supernatant of the NS cell line culture was subjected to chromatography on a C18 column (BONDELUTE), and the fraction retained in the column was separated and eluted with acetonitrile and methanol, and concentrated to dryness by evaporating the solvents with nitrogen gas.
The fraction was further developed by TLC. That is to say, the solution of the materials separated on the C18 column in chloroform: methanol (1:1) was spotted on a thin layer and developed by chloroform: methanol: distilled water (60:40:8). […]

[2] = Physico-chemical properties (solubility, acid/base nature); format: physicochemical

## Cc1cn([C@@H]2O[C@H](CO)[C@@H](O)[C@H]2O)c(=O)[nH]c1=O [P2, ribothymidine]
[1]
  suppression of incorporation of 3H-thymidine into the Molt4 cell: strong activity
[2]
  discrimination of acidic, neutral and basic substances: basic substance
  solubility: soluble in organic solvents such as methanol, dimethylsulfoxide and in water

## Cc1cn([C@H]2C[C@H](O)[C@@H](CO)O2)c(=O)[nH]c1=O [P4, thymidine]
[2]
  discrimination of acidic, neutral and basic substances: basic substance
  solubility: soluble in organic solvents such as methanol, dimethylsulfoxide and in water

## CO[C@@H]1[C@H](O)[C@@H](CO)O[C@H]1n1cnc2c(O)ncnc21 [P5, 2′-O-methylinosine]
[2]
  discrimination of acidic, neutral and basic substances: basic substance
  solubility: soluble in organic solvents such as methanol, dimethylsulfoxide and in water

## CO[C@@H]1[C@H](O)[C@@H](CO)O[C@H]1n1cnc2c(=O)[nH]c(N)nc21 [P6, 2′-O-methylguanosine]
[2]
  discrimination of acidic, neutral and basic substances: basic substance
  solubility: soluble in organic solvents such as methanol, dimethylsulfoxide and in water
